Assay results from patent US10729688B2, “Hepatitis B antiviral agents” (Enanta Pharmaceuticals, Inc., priority 2018, dated 2020).

Experiments:
[1] = Compound toxicity, ATPLite total ATP levels; format: cell-based; settings: human, HepAD38 cells; 15,000 cells/well; three days after compound addition; total ATP levels reduced by 50% relative to no drug controls
Method: (§1) Methods: HepAD38 cells were maintained as previously reported (Ladner et al, Antimicrob. Agents Chemother. 1997, 4, 1715). Briefly, cells were passaged upon attaining confluency in DMEM/F12 media in the presence of 10% FBS, Penn/Strep, 250 μg/mL G418, and 1 ug/ml tetracycline. Compounds were screened by first washing cells three times with PBS to remove tetracycline, and plating in 96 well plates at 35,000 cells/well. Compounds dissolved in DMSO were then diluted 1:200 into wells containing cells. Five days after compound addition, material was harvested for analysis. For an extended 8 day analysis, cells were plated and treated as described above, but media and compound were refreshed on day 2 and day 5 post initial treatment.
Compound toxicity was evaluated by seeding cells at 15,000 cells/well and treating with compound as described above.

HBV = test: HepAD38 antiviral assay: reduction of viral product accumulation; format: cell-based; settings: Hepatitis B virus, 120 h; HepAD38 cells, tetracycline removed; harvest five days after compound addition; viral product (virion DNA by qPCR, or HBsAg/HBeAg by ELISA) reduced by 50% relative to no drug controls
Method: as §1
On harvest day, virion DNA was obtained by lysing with Sidestep Lysis and Stabilization Buffer and then quantified via quantitative real time PCR. Commercially available ELISA kits were used to quantitate the viral proteins HBsAg (Alpco) or HbeAg (US Biological) by following the manufacturer's recommended protocol after diluting samples to match the linear range of their respective assays. Irrespective of readout, compound concentrations that reduce viral product accumulation in the cell lysates or supernatants by 50% relative to no drug controls (EC50) are reported; EC50 ranges are as follows: A<0.1 μM; B 0.1-0.2 μM; C>0.2 μM.

Row | SMILES | CC50 at 3 days [1] [µM] | EC50 (HBV) [µM]
1 | O=C(Nc1ccc(F)c(F)c1)N1Cc2c(N3CCCS3(=O)=O)cnn2[C@@H]2CCC[C@@H]21 [Example 11] | > 25 | < 0.1
2 | O=C(Nc1cc(F)c(F)c(F)c1)N1Cc2c(N3CCCS3(=O)=O)cnn2C[C@@H]1C1CC1 [Example 73] | > 25 | < 0.1
3 | O=C(Nc1ccc(F)c(Cl)c1)N1Cc2c(N3CCCS3(=O)=O)cnn2[C@@H]2CCC[C@@H]21 [Example 12] | > 25 | < 0.1
4 | O=C(Nc1cc(F)c(F)c(F)c1)N1Cc2c(N3CCCS3(=O)=O)cnn2[C@@H]2CCCC[C@@H]21 [Example 51] | > 25 | < 0.1
5 | CC1(C)CN(c2cnn3c2CN(C(=O)Nc2cc(F)c(F)c(F)c2)[C@H]2CCC[C@H]23)C(=O)O1 [Example 19] | > 25 | < 0.1
6 | CC(C)[C@H]1COC(=O)N1c1cnn2c1CN(C(=O)Nc1cc(F)c(F)c(F)c1)[C@H]1CCC[C@H]12 [Example 26] | > 25 | < 0.1
7 | C[C@@H]1N(c2cnn3c2CN(C(=O)Nc2cc(F)c(F)c(F)c2)[C@H]2CCC[C@H]23)C(=O)OC1(C)C [Example 15] | > 25 | < 0.1
8 | CC1(C)COC(=O)N1c1cnn2c1CN(C(=O)Nc1cc(F)c(F)c(F)c1)[C@H]1CCC[C@H]12 [Example 60] | > 25 | < 0.1
9 | C[C@@H]1N(c2cnn3c2CN(C(=O)Nc2ccc(F)c(F)c2)[C@H]2CCC[C@H]23)C(=O)OC1(C)C [Example 17] | > 25 | < 0.1
10 | O=C(Nc1cc(F)c(F)c(F)c1)N1Cc2c(N3CCCS3(=O)=O)cnn2C[C@@H]1c1ccccn1 [Example 72] | > 25 | < 0.1
